These results are taken from patent publication US20250122207A1, “AP2 ASSOCIATED KINASE 1 INHIBITORS AND USES THEREOF” (Satellos Bioscience Inc., priority 2023, published 2025).

Experiment [1] concerns the target T1, AAK1 (amino acids T27-A365) (Homo sapiens, UniProt Q2M2I8).
T1 construct: against AAK1 (amino acids T27-A365); 6His (N, cleaved yes)
As to the kind of experiment: AAK1 pSENs assay. In kind it is biochemical. Here is the method: (§1) The recombinant proteins were independently expressed in Escherichia coli BL21(DE3) cells cultured in Luria-Bertani (LB) medium until OD600 reached 0.6-0.8, then cooled to 15° C. and supplemented with 0.5 mM isopropyl 1-thio-D-galactopyranoside (IPTG) induce protein expression 16 h. Cells were harvested and resuspended in lysis buffer (50 mM HEPES pH 7.5, 500 mM NaCl, 5 mM imidazole, 5% glycerol, 0.5 mM Tris (2-carboxyethyl) phosphine (TCEP), cOmplete Protease Inhibitor Tablet (Roche)) and lysed by microfludics high pressure homogenizer (UH-06, Union-Biotech). Proteins were purified using […] chromatography (His FF column, Bestchrom) and eluted stepwise in binding buffer with 20-300 mM imidazole. Removal of the hexahistidine tag was performed at 4° C. overnight using recombinant TEV protease and reacted with BirA to obtain the corresponding biotinylated-AAK1, BIKE or GAK proteins. Further separated in the reverse Strep column (Strep-Tactin® XT, IBA). The Biotin elution sample was collected containing untagged biotinylated protein was then purified by Ion-exchange chromatography (Mono Q 10/100 GL, Cytiva) and Size-exclusion chromatography (HiLoad 16/600 Superdex 200 pg, Cytiva). The pure protein was stored in a storage buffer 50 mM HEPES (pH 7.5), 300 mM NaCl, 5% glycerol at −80° C. Protein were characterized by SDS-PAGE, LC-MS and aSEC.
This example describes one illustrative method for determining the IC50 of the compounds of the present invention against AAK1 (amino acids T27-A365). AAK1 protein was dissolved at 20 nM in 1× enzyme solution (50 mM HEPES pH7.5, 10 mM MgCl2, 1 mM DTT, 1% glycerol, 0.5 mM EGTA, 0.01% Briji35, 0.02% BSA) and 12.5 ul was incubated with 250 nl DMSO or 250 nl compound in DMSO at 25° C. for 15 min. The reaction was started by addition of 12.5 ul of 30 uM AQT0759 (Assayquant, CSKS-AQT0759B) and 70 uM ATP which were diluted in 1× substrate dilution buffer (50 mM HEPES pH7.5, 10 mM MgCl2, 1 mM DTT, 1% glycerol, 0.5 mM EGTA, 0.01% Briji35).

Another experiment concerns the target AAK1 (Homo sapiens, UniProt Q2M2I8). Description: pAP2M1 cell-based assay (in-cell Western). The source says: pAP2M1 Cell-Based Assay (in-Cell Western):
The plate was read on Licor Odyssey CLx imaging system (LICOR) to acquire fluorescence intensity at 700 channel and 800 channel.
Data analysis: Fluorescence intensity at 700 channel served as internal standard and 800 channel were normalized with 700 channel.

Experiment [2] concerns the target T2, BIKE (amino acids S38-E345) (K320A, K321A) (Homo sapiens, UniProt Q9NSY1, K320A/K321A).
T2 construct: against BIKE (amino acids S38-E345) (K320A, K321A); 6His (N, cleaved yes)
As to the kind of experiment: BIKE pSENs assay. The format is biochemical. On the procedure: as §1
BIKE protein was dissolved at 20 nM in 1× enzyme solution (50 mM HEPES pH7.5, 10 mM MgCl2, 1 mM DTT, 1% glycerol, 0.5 mM EGTA, 0.01% Briji35, 0.02% BSA) and 12.5 ul was incubated with 250 nl DMSO or 250 nl compound in DMSO at 25° C. for 15 min. The reaction was started by addition of 12.5 ul of 30 uM AQT0759 (Assayquant, CSKS-AQT0759B) and 40 uM ATP which were diluted in 1× substrate dilution buffer (50 mM HEPES pH7.5, 10 mM MgCl2, 1 mM DTT, 1% glycerol, 0.5 mM EGTA, 0.01% Briji35).

Setting [3] is: class symbols, read-out: AAK1 pSENs: EIC50.
Setting [4] is: Hela cells co-transfected with AP2M1 and AAK1, 3 hr treatment, class symbols, read-out: AAK1 In-cell Western: IC50.
Where [5] appears, read: class symbols, read-out: BIKE pSENs: IC50.

pIC50: −log10 of the molar value. Read-outs that look alike come from different tables or passages of the source. Where only a bound is given, the exact number is not on record here.

T1 sequence (Q2M2I8 27-365): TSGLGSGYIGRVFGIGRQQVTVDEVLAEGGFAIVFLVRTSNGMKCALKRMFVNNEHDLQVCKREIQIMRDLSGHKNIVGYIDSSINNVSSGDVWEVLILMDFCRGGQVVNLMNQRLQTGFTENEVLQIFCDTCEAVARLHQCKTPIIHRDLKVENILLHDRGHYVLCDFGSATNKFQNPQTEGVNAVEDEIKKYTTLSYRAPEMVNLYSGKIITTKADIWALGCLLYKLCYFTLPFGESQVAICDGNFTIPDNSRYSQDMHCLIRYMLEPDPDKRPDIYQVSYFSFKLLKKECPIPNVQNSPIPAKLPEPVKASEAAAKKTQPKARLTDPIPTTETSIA
AAK1, sequence (Q2M2I8 whole entry): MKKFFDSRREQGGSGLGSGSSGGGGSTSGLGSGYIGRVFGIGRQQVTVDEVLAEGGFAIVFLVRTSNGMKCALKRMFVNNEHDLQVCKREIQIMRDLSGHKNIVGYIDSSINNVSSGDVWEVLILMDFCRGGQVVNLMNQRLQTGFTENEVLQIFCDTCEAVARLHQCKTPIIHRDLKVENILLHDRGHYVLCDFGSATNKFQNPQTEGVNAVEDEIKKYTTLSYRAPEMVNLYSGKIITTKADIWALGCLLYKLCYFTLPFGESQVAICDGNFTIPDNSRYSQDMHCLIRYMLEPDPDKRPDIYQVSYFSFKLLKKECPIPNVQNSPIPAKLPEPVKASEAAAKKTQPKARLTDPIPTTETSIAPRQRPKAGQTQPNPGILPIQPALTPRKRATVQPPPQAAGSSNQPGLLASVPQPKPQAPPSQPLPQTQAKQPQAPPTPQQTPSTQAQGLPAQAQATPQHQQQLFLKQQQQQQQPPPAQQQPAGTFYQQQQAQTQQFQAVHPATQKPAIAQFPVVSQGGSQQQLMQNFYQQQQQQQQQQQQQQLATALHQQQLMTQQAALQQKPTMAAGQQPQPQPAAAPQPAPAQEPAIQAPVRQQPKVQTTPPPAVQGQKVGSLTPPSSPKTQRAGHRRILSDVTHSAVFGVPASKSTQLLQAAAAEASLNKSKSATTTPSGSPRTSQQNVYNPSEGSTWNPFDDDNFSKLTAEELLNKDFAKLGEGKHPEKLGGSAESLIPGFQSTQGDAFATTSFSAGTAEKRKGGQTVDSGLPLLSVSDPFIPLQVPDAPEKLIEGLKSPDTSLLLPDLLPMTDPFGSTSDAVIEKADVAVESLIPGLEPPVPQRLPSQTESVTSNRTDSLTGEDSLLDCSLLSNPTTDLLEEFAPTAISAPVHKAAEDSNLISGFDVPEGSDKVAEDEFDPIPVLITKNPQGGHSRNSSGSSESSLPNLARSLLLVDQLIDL
T2 sequence (Q9NSY1 38-345 K320A/K321A): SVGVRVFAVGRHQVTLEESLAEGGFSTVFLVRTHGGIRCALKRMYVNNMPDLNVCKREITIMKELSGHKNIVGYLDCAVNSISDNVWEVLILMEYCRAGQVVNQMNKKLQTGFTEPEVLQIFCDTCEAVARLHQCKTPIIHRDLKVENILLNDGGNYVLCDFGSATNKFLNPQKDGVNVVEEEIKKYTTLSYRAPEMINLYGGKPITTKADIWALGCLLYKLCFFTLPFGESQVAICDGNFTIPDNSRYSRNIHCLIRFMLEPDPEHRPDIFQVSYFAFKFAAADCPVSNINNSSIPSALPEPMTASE

Regarding `CC1(OC(=O)N2CCN(c3ccn4ncc(-c5cccnc5OC5COC5)c4n3)CC2)COC1` [Compound I-18, (3-Methyloxetan-3-yl)-4-[3-[2-(oxetan-3-yloxy)-3-pyridyl]pyrazolo[1,5-a]pyrimidin-5-yl]piperazine-1-carboxylate], the pIC50 was 7.30 to 9.00 in experiment [1] (setting [3]), 6.30 to 6.82 at AAK1 (setting [4]) and 5.82 to 6.30 in experiment [2] (setting [5]).
In the case of `[2H]C1([2H])N(C(=O)O[C@@H]2CNC(=O)C2)C([2H])([2H])C([2H])([2H])N(c2ccn3ncc(-c4cccnc4OC4CC4)c3n2)C1([2H])[2H]` [Compound I-72, [(3S)-5-oxopyrrolidin-3-yl]4-[3-[2-(cyclopropoxy)-3-pyridyl]pyrazolo[1,5-a]pyrimidin-5-yl]-2,2,3,3,5,5,6,6-octadeuterio-piperazine-1-carboxylate], the pIC50 was 7.30 to 9.00 in experiment [1], 5.82 to 6.30 on AAK1 and 6.30 to 6.82 in experiment [2].
Turning to `O=C1C[C@@H](OC(=O)N2CCN(c3ccn4ncc(-c5cccnc5OC5CC5)c4n3)CC2)CN1` [Compound I-10, [(3R)-5-Oxopyrrolidin-3-yl]-4-[3-[2-(cyclopropoxy)-3-pyridyl]pyrazolo[1,5-a]pyrimidin-5-yl]piperazine-1-carboxylate], the pIC50 was 7.30 to 9.00 in experiment [1] (setting [3]), 5.82 to 6.30 on AAK1 (setting [4]) and 6.30 to 6.82 in experiment [2] (setting [5]).
On the same counts, the results for `C[C@@]1(OC(=O)N2CCN(c3ccn4ncc(-c5cccnc5OC5CC5)c4n3)CC2)CCN(CCO)C1` [Compound I-52, [(3R)-1-(2-hydroxyethyl)-3-methyl-pyrrolidin-3-yl]-4-[3-[2-(cyclopropoxy)-3-pyridyl]pyrazolo[1,5-a]pyrimidin-5-yl]piperazine-1-carboxylate] are 7.30 to 9.00, 6.30 to 6.82 and 5.82 to 6.30.
As for `COc1ccccc1-c1cnn2ccc(N3CCN(C(=O)O[C@H]4CO[C@H]5OCC[C@H]54)CC3)nc12` [Compound I-69, (3R,3aS,6aR)-hexahydrofuro[2,3-b]furan-3-yl 4-(3-(2-methoxyphenyl)pyrazolo[1,5-a]pyrimidin-5-yl)piperazine-1-carboxylate], the pIC50 in experiment [1] (setting [3]) is 7.30 to 9.00; at AAK1 (setting [4]), 5.82 to 6.30; in experiment [2] (setting [5]) it was 6.30 to 6.82.
As for `O=C1C[C@H](OC(=O)N2CCN(c3ccn4ncc(-c5cccnc5OC5COC5)c4n3)CC2)CN1` [Compound I-25, [(3S)-5-Oxopyrrolidin-3-yl]4-[3-[2-(oxetan-3-yloxy)-3-pyridyl]pyrazolo[1,5-a]pyrimidin-5-yl]piperazine-1-carboxylate], the pIC50 in experiment [1] (setting [3]) is 7.30 to 9.00; at AAK1 (setting [4]) it was less than 5.82; in experiment [2] (setting [5]), 6.30 to 6.82.
Consider `CC(C)(C)OC(=O)N1CCC(N2C[C@@H](OC(=O)N3CCN(c4ccn5ncc(-c6cccnc6OC6CC6)c5n4)CC3)CC2=O)CC1` [Compound I-30, [(3S)-1-(1-tert-Butoxycarbonyl-4-piperidyl)-5-oxo-pyrrolidin-3-yl]4-[3-[2-(cyclopropoxy)-3-pyridyl]pyrazolo[1,5-a]pyrimidin-5-yl]piperazine-1-carboxylate], for which the pIC50 in experiment [1] (setting [3]) was 6.82 to 7.29; at AAK1 (setting [4]), less than 5.82; in experiment [2] (setting [5]) it was 5.82 to 6.30.
With `[2H]C1([2H])N(C(=O)O[C@H]2CC(=O)N(C)C2)C([2H])([2H])C([2H])([2H])N(c2ccn3ncc(-c4cccnc4OC4CC4)c3n2)C1([2H])[2H]` [Compound I-73, [(3S)-1-methyl-5-oxo-pyrrolidin-3-yl]-4-[3-[2-(cyclopropoxy)-3-pyridyl]pyrazolo[1,5-a]pyrimidin-5-yl]-2,2,3,3,5,5,6,6-octadeuterio-piperazine-1-carboxylate], the pIC50 in experiment [1] was 7.30 to 9.00; against AAK1 it was 5.82 to 6.30; in experiment [2], 5.82 to 6.30. The “AAK1:GAK pSENs Selectivity” value in experiment [1] (ratio of AAK1 pSENs activity to GAK pSENs activity, class symbols) was “A (A: ≤0.015)”.
On to `CN1C[C@@H](OC(=O)N2CCN(c3ccn4ncc(-c5cccnc5OC5CC5)c4n3)CC2)CC1=O` [Compound I-34, [(3S)-1-methyl-5-oxo-pyrrolidin-3-yl]-4-[3-[2-(cyclopropoxy)-3-pyridyl]pyrazolo[1,5-a]pyrimidin-5-yl]piperazine-1-carboxylate], for which the pIC50 is 7.30 to 9.00 in experiment [1] (setting [3]), 6.30 to 6.82 at AAK1 (setting [4]) and 6.30 to 6.82 in experiment [2].
`CN1C[C@@H](OC(=O)N2CCN(c3ccn4ncc(-c5cc(F)cnc5OC5CC5)c4n3)CC2)CC1=O` [Compound I-86]: the pIC50 in experiment [1] (setting [3]) is 7.30 to 9.00; at AAK1 (setting [4]), 6.30 to 6.82; in experiment [2] (setting [5]), 6.30 to 6.82.
Take `[2H]C([2H])([2H])N1C[C@@H](OC(=O)N2CCN(c3ccn4ncc(-c5cccnc5OC5CC5)c4n3)CC2)CC1=O` [Compound I-113, [(3S)-5-oxo-1-(trideuteriomethyl)pyrrolidin-3-yl]4-[3-[2-(cyclopropoxy)-3-pyridyl]pyrazolo[1,5-a]pyrimidin-5-yl]piperazine-1-carboxylate]: the pIC50 in experiment [1] was 7.30 to 9.00; on AAK1 (setting [4]) it was 6.30 to 6.82; in experiment [2] it was 5.82 to 6.30.
Regarding `O=C(O[C@H]1CC(=O)N(C2CCNCC2)C1)N1CCN(c2ccn3ncc(-c4cccnc4OC4CC4)c3n2)CC1` [Compound I-32, [(3S)-5-Oxo-1-(4-piperidyl)pyrrolidin-3-yl]4-[3-[2-(cyclopropoxy)-3-pyridyl]pyrazolo[1,5-a]pyrimidin-5-yl]piperazine-1-carboxylate], the values for the pIC50 (in experiment [1] (setting [3]); at AAK1 (setting [4]); in experiment [2] (setting [5])) were 7.30 to 9.00, less than 5.82 and 6.82 to 7.29, respectively.
On the same counts, the results for `CN(CCNc1ccn2ncc(-c3cccnc3OC3CC3)c2n1)C(=O)O[C@@H]1CNC(=O)C1` [Compound I-60, [(3S)-5-oxopyrrolidin-3-yl]N-[2-[[3-[2-(cyclopropoxy)-3-pyridyl]pyrazolo[1,5-a]pyrimidin-5-yl]amino]ethyl]-N-methyl-carbamate] are 6.82 to 7.29, less than 5.82 and 5.82 to 6.30.
Taken in the same sequence, the figures for `O=C1C[C@H](OC(=O)N2CCN(c3ccn4ncc(-c5cccnc5OC5CC5)c4n3)CC2)CN1CCO` [Compound I-38, [(3S)-1-(2-Hydroxyethyl)-5-oxo-pyrrolidin-3-yl]-4-[3-[2-(cyclopropoxy)-3-pyridyl]pyrazolo[1,5-a]pyrimidin-5-yl]piperazine-1-carboxylate] were 7.30 to 9.00, less than 5.82 and 6.30 to 6.82.
On the same counts, the results for `COC(=O)N1CC(Oc2ncccc2-c2cnn3ccc(N4CCN(C(=O)O[C@@H]5CNC(=O)C5)CC4)nc23)C1` [Compound I-58, [(3S)-5-oxopyrrolidin-3-yl]-4-[3-[2-(1-methoxycarbonylazetidin-3-yl)oxy-3-pyridyl]pyrazolo[1,5-a]pyrimidin-5-yl]piperazine-1-carboxylate] are 7.30 to 9.00, 5.82 to 6.30 and 6.30 to 6.82.
In the case of `CC(C)Oc1ncccc1-c1cnn2ccc(N3CCN(C(=O)OC4(C)COC4)CC3)nc12` [Compound I-1, (3-methyloxetan-3-yl)-4-[3-(2-isopropoxy-3-pyridyl)pyrazolo[1,5-a]pyrimidin-5-yl]piperazine-1-carboxylate], the figures for the pIC50 (in experiment [1]; against AAK1; in experiment [2] (setting [5])) were 6.82 to 7.29, 5.82 to 6.30 and 5.82 to 6.30, respectively.
